We go through 24 compounds from US11021446B2 (NOVARTIS AG, priority 2013, dated 2021).

The assay has as its target T1, human Farnesoid X Receptor (FXR) ligand binding domain (GST-FXR LBD) (Homo sapiens, UniProt Q96RI1).
T1 construct: purchased Invitrogen
T1 sequence (Q96RI1 193-472 isoform Q96RI1-2): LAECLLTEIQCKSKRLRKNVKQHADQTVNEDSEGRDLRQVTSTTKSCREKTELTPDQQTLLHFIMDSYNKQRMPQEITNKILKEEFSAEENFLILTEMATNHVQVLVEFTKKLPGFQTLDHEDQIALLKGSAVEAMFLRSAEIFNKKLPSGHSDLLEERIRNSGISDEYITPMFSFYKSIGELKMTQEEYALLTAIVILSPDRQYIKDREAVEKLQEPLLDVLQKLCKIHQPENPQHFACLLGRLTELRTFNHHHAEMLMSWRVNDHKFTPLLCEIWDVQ
The experiment in a line: Human GST-FXR LBD co-activator interaction assay (FXR HTRF assay). Format: biochemical. Particulars: GST-FXR LBD interaction with biotin-labeled SRC-1 peptide, FRET, response relative to GW4064, read-out: FXR coactivator interaction assay (HTRF). The source says: Human GST-FXR LBD Co-Activator Interaction Assay
The FXR HTRF assay is a biochemical assay measuring the interaction between FXR and a coactivator protein (SRC1). The ligand-induced interaction with a coactivator protein is a critical step in transcriptional activation by FXR. Thus, this is an assay designed to measure FXR agonist activity of the test compounds.
Recombinant human Farnesoid X Receptor (FXR) ligand binding domain (amino acids 193-472) fused to glutathione S-transferase (GST) purified protein (GST-FXR LBD) was purchased (Invitrogen). The ligand-dependent interaction between GST-FXR LBD and a peptide derived from Steroid Receptor Coactivator-1 (SRC-1) was monitored by Fluorescence Resonance Energy Transfer (FRET). […] Test compounds (in DMSO solution) and detection reagents (anti-GST-Cryptate labeled antibody and Streptavidin-XL665 conjugate; CisBio) were added in assay buffer containing 50 mM KF. Plates are incubated at room temperature in the dark for 2.5 hrs before reading on an Envision (PerkinElmer) at 665 nm and 590 nm. The HTRF assay results were calculated from the 665 nm/590 nm ratio (ratio=(A665 nm/A590 nm)×10^4) and expressed in Delta F %=(Ratiosample−Rationegative)/Rationegative×100.
A negative control (without Streptavidin-XL665) was run with each assay and represented the background fluorescence. A reference FXR agonist, (E)-3-(2-chloro-4-((3-(2,6-dichlorophenyl)-5-isopropylisoxazol-4-yl)methoxy)styryl)benzoic acid (Compound GW4064), was included in each experiment as positive control. The efficacy of each test compound was compared to that of GW4064. At each concentration, the relative activity of the test compound was expressed as Response %=(Rsample−RDMSO)/(Rpositive−RDMSO), where Rsample is the HTRF response (expressed in Delta F %) for the test compound, Rpositive is the maximal response for GW4064 at saturating concentrations, and RDMSO is the response for DMSO control. The EC50 values were calculated using GraphPad Prism (GraphPad Software) using non-linear regression curve fit (log(agonist) vs. response-variable slope (four parameters)).
A general note: TR-FRET usually uses a lanthanide donor and a delayed reading to cut background.

Molecules are shown by their SMILES.

As for `Cn1nc(C(=O)N(CCOc2ccc(C(=O)O)cc2F)Cc2ccccc2)c2c1-c1cc(F)c(F)cc1OC2` [Compound 57, 4-(2-(N-benzyl-7,8-difluoro-1-methyl-1,4-dihydrochromeno[4,3-c]pyrazole-3-carboxamido)ethoxy)-3-fluorobenzoic acid], the EC50 was 30 nM.

Consider `Cn1nc(C(=O)N(CCOc2ccc(C(=O)O)cc2F)Cc2cccc(F)c2)c2c1-c1cc(F)ccc1OC2` [Compound 58, 3-fluoro-4-(2-(8-fluoro-N-(3-fluorobenzyl)-1-methyl-1,4-dihydrochromeno[4,3-c]pyrazole-3-carboxamido)ethoxy)benzoic acid], for which the EC50 is 22 nM.

For `Cn1nc(C(=O)N(CCOc2ccc(C(=O)O)cc2F)Cc2cccc(F)c2)c2c1-c1cc(F)c(F)cc1OC2` [Compound 59, 4-(2-(7,8-difluoro-N-(3-fluorobenzyl)-1-methyl-1,4-dihydrochromeno[4,3-c]pyrazole-3-carboxamido)ethoxy)-3-fluorobenzoic acid], the EC50 was found to be 28 nM.

As to `Cn1nc(C(=O)N(CCOc2ccc(C(=O)O)cc2F)Cc2ccccc2F)c2c1-c1cc(F)ccc1OC2` [Compound 61, 3-fluoro-4-(2-(8-fluoro-N-(2-fluorobenzyl)-1-methyl-1,4-dihydrochromeno[4,3-c]pyrazole-3-carboxamido)ethoxy)benzoic Acid], the EC50 amounted to 89 nM.

As to `Cn1nc(C(=O)N(CCOc2ccc(C(=O)O)cc2F)Cc2ccccc2F)c2c1-c1cc(F)c(F)cc1OC2` [Compound 62, 4-(2-(7,8-difluoro-N-(2-fluorobenzyl)-1-methyl-1,4-dihydrochromeno[4,3-c]pyrazole-3-carboxamido)ethoxy)-3-fluorobenzoic acid], the EC50 came out at 74 nM.

For the compound `Cn1nc(C(=O)N(CCNc2cccc(C(=O)O)c2)Cc2ccccc2F)c2c1-c1cc(Cl)ccc1OC2` [Compound 63, 3-((2-(8-chloro-N-(2-fluorobenzyl)-1-methyl-1,4-dihydrochromeno[4,3-c]pyrazole-3-carboxamido)ethyl)amino)benzoic Acid], the EC50 came to 6 nM.

In the case of `Cn1nc(C(=O)N(CC(=O)Nc2cc(C(=O)O)ccc2F)Cc2ccccc2F)c2c1-c1cc(Cl)ccc1OC2` [Compound 64, 3-(2-(8-chloro-N-(2-fluorobenzyl)-1-methyl-1,4-dihydrochromeno[4,3-c]pyrazole-3-carboxamido)acetamido)-4-fluorobenzoic Acid], the EC50 was 0.6 nM.

As to `Cn1nc(C(=O)N(CCNc2cc(C(=O)O)ccc2F)Cc2cccc(F)c2)c2c1-c1cc(Cl)ccc1OC2` [Compound 65, 3-((2-(8-chloro-N-(3-fluorobenzyl)-1-methyl-1,4-dihydrochromeno[4,3-c]pyrazole-3-carboxamido)ethyl)amino)-4-fluorobenzoic Acid], the EC50 is 7 nM.

Regarding `Cn1nc(C(=O)N(CCNc2cc(C(=O)O)ccc2F)Cc2ccccc2F)c2c1-c1cc(F)ccc1OC2` [Compound 69, 4-fluoro-3-((2-(8-fluoro-N-(2-fluorobenzyl)-1-methyl-1,4-dihydrochromeno[4,3-c]pyrazole-3-carboxamido)ethyl)amino)benzoic acid], the EC50 was determined as 25 nM.

Turning to `Cn1nc(C(=O)N(CCNc2cc(C(=O)O)ccc2F)Cc2ccccc2F)c2c1-c1ccccc1OC2` [Compound 70, 4-fluoro-3-((2-(N-(2-fluorobenzyl)-1-methyl-1,4-dihydrochromeno[4,3-c]pyrazole-3-carboxamido)ethyl)amino)benzoic acid], the EC50 was 81 nM.

For the compound `Cn1nc(C(=O)N(CCNc2cc(C(=O)O)ccc2F)Cc2ccccc2)c2c1-c1cc(F)ccc1OC2` [Compound 71, 3-((2-(N-benzyl-8-fluoro-1-methyl-1,4-dihydrochromeno[4,3-c]pyrazole-3-carboxamido)ethyl)amino)-4-fluorobenzoic acid], the EC50 came to 22 nM.

In the case of `Cn1nc(C(=O)N(CCNc2cc(C(=O)O)ccc2F)Cc2ccccc2)c2c1-c1cc(Cl)ccc1OC2` [Compound 72, 3-((2-(N-benzyl-8-chloro-1-methyl-1,4-dihydrochromeno[4,3-c]pyrazole-3-carboxamido)ethyl)amino)-4-fluorobenzoic acid], the EC50 came to 2.6 nM.

For the compound `Cn1nc(C(=O)N(CCNc2cc(C(=O)O)ccc2F)Cc2cccc(F)c2)c2c1-c1cc(F)c(F)cc1OC2` [Compound 73, 3-((2-(7,8-difluoro-N-(3-fluorobenzyl)-1-methyl-1,4-dihydrochromeno[4,3-c]pyrazole-3-carboxamido)ethyl)amino)-4-fluorobenzoic acid], the EC50 was determined as 20 nM.

Take `Cn1nc(C(=O)N(CCNc2cc(C(=O)O)ccc2F)Cc2ccccc2)c2c1-c1cc(F)c(F)cc1OC2` [Compound 74, 3-((2-(N-benzyl-7,8-difluoro-1-methyl-1,4-dihydrochromeno[4,3-c]pyrazole-3-carboxamido)ethyl)amino)-4-fluorobenzoic acid]: the EC50 turned out to be 55 nM.

Consider `Cn1nc(C(=O)N(Cc2ccccc2)Cc2ccc(C(=O)O)cc2)c2c1-c1cc(Cl)ccc1OC2` [Compound 75, 4-((N-benzyl-8-chloro-1-methyl-1,4-dihydrochromeno[4,3-c]pyrazole-3-carboxamido)methyl)benzoic Acid], for which the EC50 was found to be 6 nM.

For `Cn1nc(C(=O)N(Cc2ccccc2)Cc2ccc(C(=O)O)cc2F)c2c1-c1cc(Cl)ccc1OC2` [Compound 76, 4-((N-benzyl-8-chloro-1-methyl-1,4-dihydrochromeno[4,3-c]pyrazole-3-carboxamido)methyl)-3-fluorobenzoic acid], the EC50 came to 9.6 nM.

Consider `Cn1nc(C(=O)N(Cc2ccc(C(=O)O)cc2)Cc2cccc(F)c2)c2c1-c1cc(F)ccc1OC2` [Compound 77, 4-((8-fluoro-N-(3-fluorobenzyl)-1-methyl-1,4-dihydrochromeno[4,3-c]pyrazole-3-carboxamido)methyl)benzoic acid], for which the EC50 is 7.9 nM.

On to `Cn1nc(C(=O)N(Cc2ccc(C(=O)O)cc2)Cc2cc(F)cc(F)c2)c2c1-c1cc(Cl)ccc1OC2` [Compound 78, 4-((8-chloro-N-(3,5-difluorobenzyl)-1-methyl-1,4-dihydrochromeno[4,3-c]pyrazole-3-carboxamido)methyl)benzoic acid], for which the EC50 was 8.3 nM.

Regarding `Cn1nc(C(=O)N(Cc2ccccc2)Cc2ccc(C(=O)O)cc2F)c2c1-c1cc(F)ccc1OC2` [Compound 79, 4-((N-benzyl-8-fluoro-1-methyl-1,4-dihydrochromeno[4,3-c]pyrazole-3-carboxamido)methyl)-3-fluorobenzoic acid], the EC50 is 22 nM.

Consider `Cc1cccc(CN(Cc2ccc(C(=O)O)cc2)C(=O)c2nn(C)c3c2COc2ccc(Cl)cc2-3)c1` [Compound 80, 4-((8-chloro-1-methyl-N-(3-methylbenzyl)-1,4-dihydrochromeno[4,3-c]pyrazole-3-carboxamido)methyl)benzoic acid], for which the EC50 was 16 nM.

Regarding `Cn1nc(C(=O)N(Cc2ccc(C(=O)O)cc2)Cc2cccc(F)c2F)c2c1-c1cc(Cl)ccc1OC2` [Compound 81, 4-((8-chloro-N-(2,3-difluorobenzyl)-1-methyl-1,4-dihydrochromeno[4,3-c]pyrazole-3-carboxamido)methyl)benzoic acid], the EC50 came to 21 nM.

As for `Cc1cc(F)cc(CN(Cc2ccc(C(=O)O)cc2)C(=O)c2nn(C)c3c2COc2ccc(Cl)cc2-3)c1` [Compound 82, 4-((8-chloro-N-(3-fluoro-5-methylbenzyl)-1-methyl-1,4-dihydrochromeno[4,3-c]pyrazole-3-carboxamido)methyl)benzoic acid], the EC50 was determined as 12 nM.

As for `Cn1nc(C(=O)N(Cc2ccc(C(=O)O)cc2)Cc2cc(F)cc(F)c2)c2c1-c1cc(F)ccc1OC2` [Compound 83, 4-((N-(3,5-difluorobenzyl)-8-fluoro-1-methyl-1,4-dihydrochromeno[4,3-c]pyrazole-3-carboxamido)methyl)benzoic acid], the EC50 turned out to be 14 nM.

Consider `Cc1cccc(CN(Cc2ccc(C(=O)O)cc2F)C(=O)c2nn(C)c3c2COc2ccc(Cl)cc2-3)c1` [Compound 84, 4-((8-chloro-1-methyl-N-(3-methylbenzyl)-1,4-dihydrochromeno[4,3-c]pyrazole-3-carboxamido)methyl)-3-fluorobenzoic acid], for which the EC50 came out at 18 nM.
